Measurements published in PMC5055185, “Dual pharmacological inhibition of glutathione and thioredoxin systems synergizes to kill colorectal carcinoma stem cells” (Cancer Medicine, 2016).
pIC50: −log10 of the molar value. “Also recorded” adds a separate entry of the source.

Assays:
Assay type in all cases: cell-based, human
[1] = test system: CTOS88 colorectal cancer tissue‐originated spheroids; experiment: cell survival (trypan blue exclusion, 5 days), CTOS88; settings: for Ratio of survived cells (Drugs treated/Untreated), #3: passage point #3; for Ratio of survived cells (Drugs treated/Untreated), #4: passage point #4; for Ratio of survived cells (Drugs treated/Untreated), #5: passage point #5; for Ratio of survived cells (Drugs treated/Untreated), #1: passage point #1; for Ratio of survived cells (Drugs treated/Untreated), #6: passage point #6
Excerpt: All experimental procedures were approved by the animal facility at Dokkyo Medical University (ID: 951) and were described elsewhere 10. The existence of CSCs has been experimentally proven through serial xenotransplantation and tumorigenesis 2, 14. […] These subcutaneous tumors were again subjected to enzymatic dissociation and some of the tumor cells were subcutaneously transplanted into other mice. […] Seven cases (CTOS:40, 42, 68, 71, 76, 86, 88) were used for in vitro experiments.
Modified procedures of CTOS culture 16 were described elsewhere 10. […] The culture medium was serum‐free advanced DMEM/F‐12 (GIBCO, Waltham, MA) supplemented with FGF‐2 (10 ng/mL, ReproCell, Yokohama, Japan), penicillin ([…], Wako, Osaka, Japan), streptomycin (0.1 mg/mL,Wako), gentamicin (50 μg/mL, Wako), and fungizone (0.25 μg/mL, GIBCO). DLD‐1 and HCT116 CRC cell lines were purchased from JCRB Cell Bank (Osaka, Japan) and RIKEN BioResource Center (Ibaraki, Japan), respectively. In order to estimate pharmacological side effects against normal tissues, human diploid fibroblasts were purchased (JCRB Cell Bank) as model cells. The origins of the fibroblasts were as follows: OUMS‐36 (embryo), TIG‐3 (fetal lung), TIG‐111 (dermal fibroblasts [DFs] from individual), TIG‐119 (DFs from individual), and TIG‐102 (DFs from individual). Adult DFs were purchased from Kurabo (Osaka, Japan). CRC cell lines and fibroblasts were maintained under supplier‐recommended culture conditions. Since the culture conditions are different between fibroblasts and CTOSs, we need to be cautious about the interpretation of data (i.e., lateral comparison between them). […] Colorectal CTOSs display augmented survival through maintaining epithelial structure with E‐cadherin 16. On the other hand, the establishment of conventional cell lines (adherent culture) are much less efficient because constant cell division and autonomous survival are required for the procedure. When we choose CTOSs instead of cancer cell lines, we lose the equivalent condition (adherent culture) as a trade‐off.
Each drug's half‐maximal inhibitory concentration (IC50) was calculated based on live cell number ratios (drug treated/untreated × 100%) obtained from serial dilution of drug concentration. The length of drug exposure was 5 days. Each number of live cells was counted automatically by trypan blue exclusion (LUNA automated cell counter, Logos Biosystems, Anyang, South Korea). Cancer spheroids were dispersed with serial treatments (20 min each) of TrypLE™ and Accumax™. Thus, IC50 was determined based on cellular survival, but not on proliferation.

DLD‐1 CRC cell line = experiment: intracellular ROS, CellROX Deep Red flow cytometry, DLD-1; settings: treated 1 h (menadione 100 μmol/L, 30 min)
Description: In order to estimate the effect of each inhibitor described above, intracellular reactive oxygen species (ROS) were measured using CellROX™ Deep Red reagent (Molecular Probes). Briefly, cells were seeded on 6‐well plates at 1 × 10^6 cells per well. After cells reached 90% confluence, cells were treated with designated reagents for 1 h. CellROX™ Deep Red reagent was added at a final concentration of 5 μmol/L to the culture medium and then incubated for 30 min at 37°C. Subsequently, the medium was removed and the cells were washed with PBS and detached using 0.25% trypsin‐EDTA. The resulting fluorescence was measured using a FACS Calibur flow cytometer (Becton Dickinson, Franklin Lakes, NJ). Menadione (100 μmol/L) was added 30 min before CellROX™ Deep Red reagent treatment as a reference ROS inducer. […] CD44v9 positivity of CTOS cells was analyzed as follows: Cancer spheroids were dispersed with serial treatments of TrypLE™ (20 min, GIBCO) and Accumax™ (10 min, Innovative Cell Technologies, San Diego, CA). Cell surface CD44v9 was stained with CD44v9 antibody (Cosmobio) as well as PE‐conjugated anti‐rat IgG2a (Becton Dickinson). The fluorescence was measured using a FACS Calibur flow cytometer (Becton Dickinson). […]
One hour after each drug treatment, cells were stained with CellROX DeepRed and intracellular ROS were quantified with FACS. […]

[2] = test system: phosphorylated NRF2 in colorectal CTOSs; experiment: NRF2 phosphorylation by western blotting, colorectal CTOSs; settings: 24 hours, Auranofin 2µM, Piperlongumine 5µM, CB83 12.5 µM
Description: From colorectal CTOS, whole‐cell proteins were dissolved with solubilizer (7 mol/L urea, 2 mol/L thiourea, 2% Triton X‐100, Wako) and the entangled genomic DNA was sheared by sonication for 30 min. Procedures for immunoblotting have been described elsewhere 6, 10. Primary antibodies used in this study are as follows: phosphorylated NRF2 from Abcam (#76026) and Histone H3 from Cell Signaling Technologies (#4499, Danvers, MA). Phosphorylation of NRF2 is well correlated with nuclear accumulation in HCCs 6. Representative data are shown in the figures; all experiments were reproduced at least twice with different passage points.
Colorectal CTOSs were incubated with each inhibitor for 24 hours. Whole cell proteins were extracted and each well was loaded with same amount of proteins (40 µg for NRF2 and 10 µg for H3). Phosphorylation of NRF2 was measured by western blotting. Blotting for histone H3 serves as loading control.

[3] = test system: OUMS‐36 embryonic fibroblasts; experiment: intracellular ROS, CellROX Deep Red flow cytometry, OUMS-36; settings: treated 1 h (menadione 100 μmol/L, 30 min)
Description: (§1) In order to estimate the effect of each inhibitor described above, intracellular reactive oxygen species (ROS) were measured using CellROX™ Deep Red reagent (Molecular Probes). Briefly, cells were seeded on 6‐well plates at 1 × 10^6 cells per well. After cells reached 90% confluence, cells were treated with designated reagents for 1 h. CellROX™ Deep Red reagent was added at a final concentration of 5 μmol/L to the culture medium and then incubated for 30 min at 37°C. Subsequently, the medium was removed and the cells were washed with PBS and detached using 0.25% trypsin‐EDTA. The resulting fluorescence was measured using a FACS Calibur flow cytometer (Becton Dickinson, Franklin Lakes, NJ). Menadione (100 μmol/L) was added 30 min before CellROX™ Deep Red reagent treatment as a reference ROS inducer. […] CD44v9 positivity of CTOS cells was analyzed as follows: Cancer spheroids were dispersed with serial treatments of TrypLE™ (20 min, GIBCO) and Accumax™ (10 min, Innovative Cell Technologies, San Diego, CA). Cell surface CD44v9 was stained with CD44v9 antibody (Cosmobio) as well as PE‐conjugated anti‐rat IgG2a (Becton Dickinson). The fluorescence was measured using a FACS Calibur flow cytometer (Becton Dickinson). Since CTOSs contained abundant auto‐fluorescent cells, we defined FL2^+FL1^− cells as authentic PE‐positive (Fig. S4). Thus, CD44v9‐positive rate was defined as FL2^+FL1^−/total live cells and CD44v9‐positive fraction was further gated and split between CD44v9^low and CD44v9^high (Fig. S4), to calculate the mean fluorescent intensity of CD44v9^high fraction.
(§2) One hour after each drug treatment, cells were stained with CellROX DeepRed and intracellular ROS were quantified with FACS. Upper: histogram of fluorescent signal is represented. Lower. representative mean fluorescent intensity scores are shown. Note that without drug treatment (Control), intracellular ROS is higher in OUMS36 and TIG3 (embryonic fibroblasts) but lower in DLD-1 and HCT116 (CRC cell lines). ROS in DLD-1 was increased by auranofin. ROS in HCT116 was increased by all the inhibitors tested. […]

[4] = test system: TIG‐3 embryonic fibroblasts; experiment: intracellular ROS, CellROX Deep Red flow cytometry, TIG-3; settings: treated 1 h (menadione 100 μmol/L, 30 min)
Description: as §1, §2

[5] = calculated from average % survival

CC[PH](CC)(CC)[Au][S][C@@H]1O[C@H](COC(C)=O)[C@@H](OC(C)=O)[C@H](OC(C)=O)[C@H]1OC(C)=O [Aura, Auranofin]
Ratio of survived cells (Drugs treated/Untreated), Average ([1]; Aura 1 microM): 78.3333% | Ratio of survived cells (Drugs treated/Untreated), #3 ([1]; Aura 1 microM): 91% | Ratio of survived cells (Drugs treated/Untreated), #4 ([1]; Aura 1 microM): 76% | Ratio of survived cells (Drugs treated/Untreated), #5 ([1]; Aura 1 microM): 68% | Ratio of survived cells (Drugs treated/Untreated), Average ([1]; Aura 2 microM): 67% | Ratio of survived cells (Drugs treated/Untreated), #3 ([1]; Aura 2 microM): 72% | Ratio of survived cells (Drugs treated/Untreated), #4 ([1]; Aura 2 microM): 61% | Ratio of survived cells (Drugs treated/Untreated), #5 ([1]; Aura 2 microM): 68% | Ratio of survived cells (Drugs treated/Untreated), Average ([1]; Aura 4 microM): 24.3333% | Ratio of survived cells (Drugs treated/Untreated), #1 ([1]; Aura 4 microM): 33% | Ratio of survived cells (Drugs treated/Untreated), #3 ([1]; Aura 4 microM): 23% | Ratio of survived cells (Drugs treated/Untreated), #5 ([1]; Aura 4 microM): 17% | pIC50 [1, 5]: 5.63 | pIC50 ([1]; cellular survival, 5 days): 5.63 | intracellular ROS response (DLD‐1 CRC cell line): increased; also recorded: increase of ROS | NRF2 phosphorylation [2]: efficiently phosphorylated

COc1cc(/C=C/C(=O)N2CCC=CC2=O)cc(OC)c1OC [Pipe, Piperlongumine]
Ratio of survived cells (Drugs treated/Untreated), Average ([1]; Pipe 2.5 microM): 75.3333% | Ratio of survived cells (Drugs treated/Untreated), #3 ([1]; Pipe 2.5 microM): 56% | Ratio of survived cells (Drugs treated/Untreated), #4 ([1]; Pipe 2.5 microM): 86% | Ratio of survived cells (Drugs treated/Untreated), #5 ([1]; Pipe 2.5 microM): 84% | Ratio of survived cells (Drugs treated/Untreated), Average ([1]; Pipe 5 microM): 44.8% | Ratio of survived cells (Drugs treated/Untreated), #1 ([1]; Pipe 5 microM): 44% | Ratio of survived cells (Drugs treated/Untreated), #3 ([1]; Pipe 5 microM): 33% | Ratio of survived cells (Drugs treated/Untreated), #4 ([1]; Pipe 5 microM): 57% | Ratio of survived cells (Drugs treated/Untreated), #5 ([1]; Pipe 5 microM): 29% | Ratio of survived cells (Drugs treated/Untreated), #6 ([1]; Pipe 5 microM): 61% | Ratio of survived cells (Drugs treated/Untreated), Average ([1]; Pipe 10 microM): 12.2% | Ratio of survived cells (Drugs treated/Untreated), #1 ([1]; Pipe 10 microM): 19% | Ratio of survived cells (Drugs treated/Untreated), #3 ([1]; Pipe 10 microM): 4% | Ratio of survived cells (Drugs treated/Untreated), #4 ([1]; Pipe 10 microM): 16% | Ratio of survived cells (Drugs treated/Untreated), #5 ([1]; Pipe 10 microM): 5% | Ratio of survived cells (Drugs treated/Untreated), #6 ([1]; Pipe 10 microM): 17% | pIC50 [1, 5]: 5.37 | pIC50 ([1]; cellular survival, 5 days): 5.37 | intracellular ROS response [3]: no ROS increase | intracellular ROS response [4]: no ROS increase | NRF2 phosphorylation [2]: efficiently phosphorylated
